# Measured values reported in PMC11400632, “Substrate selectivity and inhibition of the human lysyl hydroxylase JMJD7” (Protein Science : A Publication of the Protein Society, 2024).
# Square brackets hold non-standard residues; d marks the D form. Ends that are not written are not given here. Peptide text beside a SMILES is read from it. 4Pal = N[C@@H](Cc1ccncc1)C(=O)O; Met(O) = CS(=O)CC[C@H](N)C(=O)O; SeMet = C[Se]CC[C@H](N)C(=O)O; Nle = CCCC[C@H](N)C(=O)O
# What was measured:
# Format in all cases: biochemical
# [1] = target: T1, human JMJD7 (Homo sapiens, UniProt P0C870); experiment: MALDI-TOF MS JMJD7 inhibition assay; conditions: 200 nM JMJD7 preincubated 15 min with peptide (1 nM–150 μM); 5 μM DRG1-Lys (17–40) substrate, 10 μM 2OG, 25 min, room temperature, Tris pH 7.5, MALDI MS; duplicate (n = 2), ± SE; read-out: IC50 (JMJD7 inhibition, with 15 min preincubation)
# T1 construct: human JMJD7 (residues 1–316) with an N‐terminal His6‐tag; His6 (N); made in house; host or cells: Escherichia coli Rosetta (DE3)
# T1 sequence (P0C870 whole entry, the tested form may be a part): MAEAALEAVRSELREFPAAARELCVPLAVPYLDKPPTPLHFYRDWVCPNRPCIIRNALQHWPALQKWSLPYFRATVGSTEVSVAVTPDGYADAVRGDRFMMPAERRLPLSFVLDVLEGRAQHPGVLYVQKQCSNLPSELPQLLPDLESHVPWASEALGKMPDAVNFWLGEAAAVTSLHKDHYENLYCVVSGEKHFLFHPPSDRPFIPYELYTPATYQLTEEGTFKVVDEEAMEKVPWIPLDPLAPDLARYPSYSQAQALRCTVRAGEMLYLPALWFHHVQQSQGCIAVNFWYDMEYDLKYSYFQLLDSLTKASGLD
# [2] = target: T1, human JMJD7; experiment: LC-MS assay of JMJD7-catalyzed hydroxylation/oxidation of DRG1 peptides; conditions: for extent of hydroxylation by JMJD7 at higher 2OG concentration / degree of oxidation (+16 Da) of cysteine/methionine analog peptides by JMJD7: 2 μM JMJD7, 10 μM peptide; for extent of hydroxylation by JMJD7 at higher 2OG concentration: 20 μM 2OG, pH 7.5, 2 h incubation; for fate of the JMJD7 C3-hydroxylation product: 2 h; for extent of hydroxylation (+16 Da) by JMJD7: standard conditions: 2 μM JMJD7, 10 μM DRG1 peptide, room temperature
# Method: Initial assays were carried out by incubation of purified recombinant (Markolovic et al., [2018]) human JMJD7 (2 μM) in the presence of a DRG1 derived peptide (10 μM), 2OG (10 μM), ferrous ammonium sulfate (FAS, 10 μM), and L‐ascorbate (LAA, 100 μM) in Tris buffer at pH 7.5 for 2 h at room temperature. Potential conversion to a hydroxylated product (+16 Da mass shift) was monitored by liquid‐chromatography‐mass‐spectrometry (LC–MS). […] The assay results also implied that DRG1‐Orn was hydroxylated, but to a lower extent (~21%) than DRG1‐Lys. […] The alcohol‐containing peptide hydroxynorleucine (DRG1‐HNle), was hydroxylated at relatively low levels (~24%), implying that H‐bonding interactions and positive charge of the N^ɛ‐amino group of lysine are important for efficient binding and catalysis, but that a neutral alcohol can still be accommodated at the active site (Figure 3f) (Markolovic et al., [2018]).
# All reagents were procured from Sigma Aldrich. 2‐Oxoglutarate (2OG, 10 mM) and L‐ascorbic acid (LAA, 50 mM) solutions were prepared freshly by dissolving the solids in deionized water. Ferrous ammonium sulfate (FAS) solution was prepared freshly by dissolving FAS at 400 mM in 20 mM HCl with subsequent dilution to 1 mM using deionized water. JMJD7 assays using DRG1 (16–40) based peptides were performed with the following conditions: (i) 2 or 5 μM JMJD7, 10 μM DRG1 peptide, 100 μM LAA, 10 μM FAS, 10 μM 2OG in mM 50 Tris‐buffer (pH 7.5), (ii) 2 μM JMJD7, 10 μM DRG1 peptide, 100 μM LAA, 10 μM FAS, 20 μM 2OG in mM 50 Tris‐buffer (pH 7.5). Reactions were initiated by addition of enzyme to the cosubstrate/substrate solution in a final reaction volume of 50 μL with 2 h incubation at room temperature. A positive control reaction containing enzyme and a validated peptide substrate was included in all screening studies. After 2 h, reactions were stopped by addition of 5 μL of 10% (v/v) LC–MS grade formic acid (Fisher Scientific) and transferred to a 96 well plate (Agilent). Intact mass peptide analysis was performed by LC–MS using an Agilent 1290 infinity II LC system equipped with an Agilent 1290 multisampler and an Agilent 1290 high speed pump and connected to an Agilent 6550 accurate mass iFunnel quadrupole time of flight (Q‐TOF) mass spectrometer. The reaction mixture (4 μL) was injected and loaded onto a ZORBAX RRHD Eclipse Plus C18 column (Agilent). Solvent A consisted of LC–MS grade water containing 0.1% (v/v) formic acid and solvent B consisted of MeCN containing 0.1% (v/v) formic acid. Peptides were separated using a step wise gradient (0 min – 95% solvent A, 1.0 min – 80% solvent A, 3.0 min – 45% solvent A, 4.0 min – 45% solvent A, 5.0 min – 0% solvent A, 6.0 min – 0% solvent A, 7.0 min – 95% solvent A). This was followed by a 3 min elution with 95% solvent A to re‐equilibrate the column. Flow rates were 0.2 mL/min. The mass spectrometer was operated in the positive ion mode with a drying gas temperature (280°C), drying gas flow rate (13 L min^−1), nebulizer pressure (40 psig), sheath gas temperature (350°C), sheath gas flow rate (12 L min^−1), capillary voltage (4000 V), nozzle voltage (1000 V). Data were analyzed using Agilent MassHunter Qualitative Analysis (Version B.07.00) software.
# [3] = target: T1, human JMJD7; experiment: SPE-MS time-course and steady-state kinetics of JMJD7-catalyzed hydroxylation; conditions: for k cat/K m / k cat / K m: SPE-MS, DRG1 peptide 0.1–5.0 μM, 2OG 20 μM, FAS 10 μM, LAA 100 μM, JMJD7 100 nM; for k cat: in min^-1; for K m: in µM (unit assumed)
# Method: Having shown that introduction of γ‐thialysine and γ‐azalysine residues into DRG1 peptides generates substrates that are efficiently hydroxylated by JMJD7, giving nascent products that fragment to give formylglycine, we explored whether these two peptides could compete with the DRG1‐Lys substrate for JMJD7 catalysis. The reactions of DRG1‐Lys, DRG1‐CysNH2 and DRG1‐LysN (1.0 μM) by JMJD7 (50 nM) were investigated as a function of time using SPE‐MS assays.
# To quantify the relative efficiencies of DRG1‐Lys and the substrate analog DRG1‐LysE, we carried out kinetics analyses using SPE‐MS assays as the levels of JMJD7‐catalyzed hydroxylation were sufficient for these two substrates.
# JMJD7 turnover assays for kinetic studies were performed in 96‐well polypropylene assay plates with 1.0 mL total reaction volume using a series of concentrations of the DRG1 peptide (0.1–5.0 μM), 2OG (20 μM), FAS (10 μM), LAA (100 μM). Reactions were initiated by the addition of JMJD7 (100 nM). MS‐analyses were performed using a RapidFire RF 365 high‐throughput sampling robot (Agilent) attached to an iFunnel Agilent 6550 accurate mass quadrupole time‐of‐flight (Q‐TOF) mass spectrometer operated in the positive ionization mode. The RapidFire RF 365 high‐throughput sampling robot was programmed to aspirate samples from the reaction mixture at the indicated time intervals. Assay samples were loaded onto a C4 solid phase extraction (SPE) cartridge and peptides were eluted using given previous protocols (Tumber et al., [2023]). The % conversion of the hydroxylation reaction were calculated from the ion chromatogram data by integrating peak areas using RapidFire Integrator 4.3.0 software (Agilent).
# [4] = 10 μM 2OG, 10 μM FAS, 100 μM LAA
# [5] = standard conditions: 2 μM JMJD7, 10 μM peptide, 10 μM 2OG
# [6] = 10 μM 2OG, 10 μM FAS, 100 μM LAA, Tris pH 7.5, 2 h
# [7] = 1.0 μM peptide, 50 nM JMJD7, SPE-MS time-course
compound,measurement,setting,value
CC(C)C[C@H](NC(=O)CNC(=O)[C@H](CC(C)C)NC(=O)[C@H](Cc1c[nH]cn1)NC(=O)[C@H](Cc1c[nH]cn1)NC(=O)[C@H](C)NC(=O)[C@@H](NC(=O)[C@H](C)NC(=O)[C@H](Cc1ccncc1)NC(=O)[C@H](CC(N)=O)NC(=O)[C@H](CCCCN)NC(=O)[C@H](CCC(N)=O)NC(=O)[C@@H](NC(=O)[C@H](CCCNC(=N)N)NC(=O)[C@H](C)N)[C@@H](C)O)[C@@H](C)O)C(=O)N[C@@H](CC(C)C)C(=O)N[C@@H](CCCCN)C(=O)N[C@@H](C)C(=O)N[C@@H](CCCNC(=N)N)C(=O)N[C@@H](CC(C)C)C(=O)N[C@@H](C)C(=O)N[C@@H](CCCCN)C(=O)N[C@@H](CC(C)C)C(=O)N[C@@H](CCCNC(=N)N)C(=O)N[C@@H](CCCNC(=N)N)C(N)=O [DRG1‐4pyrA] (H-ARTQKN[4Pal]ATAHHLGLLKARLAKLRR-NH2),IC50,[1],15.2 µM
"ARTQKNAhpATAHHLGLLKARLAKLRR [DRG1‐Ahp, 25-mer DRG1 (16–40) peptide with Ahp at position 22]",extent of hydroxylation by JMJD7 at higher 2OG concentration,"[2]; 10 μM FAS, 100 μM LAA",did not manifest evidence for hydroxylation
"ARTQKNCysMeATAHHLGLLKARLAKLRR [DRG1‐CysMe, 25-mer DRG1 (16–40) peptide with CysMe at position 22]",degree of oxidation (+16 Da) of cysteine/methionine analog peptides by JMJD7,[2]; [4],oxidized relatively efficiently
"ARTQKNCysNHmeATAHHLGLLKARLAKLRR [DRG1‐CysNHMe, 25-mer DRG1 (16–40) peptide with γ-methylthialysine at position 22]",possibly stable hemithioacetal product detected by MS,"[2]; standard conditions: 2 μM JMJD7, 10 μM peptide, 10 μM 2OG, 10 μM FAS, 100 μM LAA, Tris pH 7.5, 2 h",12%
same,fate of the JMJD7 C3-hydroxylation product,[2]; [5],fragmentation to form DRG1‐formylglycine and its hydrated products
"ARTQKND-LysATAHHLGLLKARLAKLRR [DRG1‐D‐Lys, 25-mer DRG1 (16–40) peptide with epimeric D-lysine at position 22]",extent of hydroxylation by JMJD7 at higher 2OG concentration,"[2]; 10 μM FAS, 100 μM LAA",~ 6%
same,extent of hydroxylation (+16 Da) by JMJD7,[2]; [6],not hydroxylated within detection limits
"ARTQKNH[Nle]ATAHHLGLLKARLAKLRR [DRG1‐HNle, 25-mer DRG1 (16–40) peptide with hydroxynorleucine at position 22]",relative rate / turnover in the time-course,[3]; [7],turnover was low
same,extent of hydroxylation by JMJD7 at higher 2OG concentration,"[2]; 10 μM FAS, 100 μM LAA",~ 56%
same,extent of hydroxylation (+16 Da) by JMJD7,[2]; [6],~ 24%
"ARTQKNLysATAHHLGLLKARLAKLRR [DRG1‐Lys, 25-mer DRG1 fragment peptide (residues 16–40), C-terminal amide, Lys at position 22; JMJD7 substrate, reference compound]",hydroxylation within 9 min,"[3]; 1.0 μM peptide, 50 nM JMJD7, SPE-MS time-course, 9 min",~ 90%
same,k cat/K m,[3],9.3 µM⁻¹ min⁻¹
same,k cat,[3],13.0 ± 0.36
same,K m,[3],1.4 ± 0.59
same,substrate inhibition of JMJD7,"[3]; increased substrate concentrations, 100 nM JMJD7, 20 μM 2OG, 10 μM FAS, 100 μM LAA, pH 7.5",substrate inhibition of JMJD7 was observed
same,extent of hydroxylation by JMJD7 at higher 2OG concentration,"[2]; 10 μM FAS, 100 μM LAA",~ 98%
same,extent of hydroxylation (+16 Da) by JMJD7,[2]; [6],~ 78%
"ARTQKNLysEATAHHLGLLKARLAKLRR [DRG1‐LysE, 25-mer DRG1 (16–40) peptide with (E)-dehydrolysine at position 22]",k cat/K m,[3],8.0 µM⁻¹ min⁻¹
same,k cat,[3],24.7 ± 0.36
same,K m,[3],3.1 ± 0.81
same,extent of hydroxylation (+16 Da) by JMJD7,[2]; [6],90%
"ARTQKNLysMeATAHHLGLLKARLAKLRR [DRG1‐LysMe, 25-mer DRG1 (16–40) peptide with LysMe at position 22]",extent of hydroxylation by JMJD7 at higher 2OG concentration,"[2]; 10 μM FAS, 100 μM LAA",~ 7%
"ARTQKNLysNATAHHLGLLKARLAKLRR [DRG1‐LysN, 25-mer DRG1 (16–40) peptide with γ-azalysine at position 22]",relative rate / turnover in the time-course,[3]; [7],oxidized more slowly than DRG1‐CysNH2
same,fate of the JMJD7 C3-hydroxylation product,[2]; [5],fragmentation to form DRG1‐formylglycine and its hydrated products
ARTQKNMetATAHHLGLLKARLAKLRR [DRG1‐Met],relative rate / turnover in the time-course,[3]; [7],turnover appeared to be low
same,degree of oxidation (+16 Da) of cysteine/methionine analog peptides by JMJD7,[2]; [4],~ 86%
ARTQKN[Met(O)]ATAHHLGLLKARLAKLRR [DRG1‐MetO],degree of oxidation (+16 Da) of cysteine/methionine analog peptides by JMJD7,[2]; [4],showed no evidence for oxidation
"ARTQKN[SeMet]ATAHHLGLLKARLAKLRR [DRG1‐SeMet, 25-mer DRG1 (16–40) peptide with SeMet at position 22]",degree of oxidation (+16 Da) of cysteine/methionine analog peptides by JMJD7,[2]; [4],showed no evidence for oxidation
"ARTQKNhLysATAHHLGLLKARLAKLRR [DRG1‐hLys, 25-mer DRG1 (16–40) peptide with hLys at position 22]",extent of hydroxylation by JMJD7 at higher 2OG concentration,"[2]; 10 μM FAS, 100 μM LAA",~ 5%
same,extent of hydroxylation (+16 Da) by JMJD7,[2]; [6],did not undergo hydroxylation within detection limits
"ARTQKNhMetATAHHLGLLKARLAKLRR [DRG1‐hMet, 25-mer DRG1 (16–40) peptide with homomethionine at position 22]",degree of oxidation (+16 Da) of cysteine/methionine analog peptides by JMJD7,[2]; [4],~ 89%
"ARTQKNhSerATAHHLGLLKARLAKLRR [DRG1‐hSer, 25-mer DRG1 (16–40) peptide with hSer at position 22]",degree of oxidation (+16 Da) of cysteine/methionine analog peptides by JMJD7,[2]; [4],did also not undergo oxidation
"ARTQKNmeOhSerATAHHLGLLKARLAKLRR [DRG1‐meOhSer, 25-mer DRG1 (16–40) peptide with meOhSer at position 22]",degree of oxidation (+16 Da) of cysteine/methionine analog peptides by JMJD7,[2]; [4],showed no evidence for oxidation
"ARTQKNnArgATAHHLGLLKARLAKLRR [DRG1‐nArg, 25-mer DRG1 (16–40) peptide with nArg at position 22]",extent of hydroxylation by JMJD7 at higher 2OG concentration,"[2]; 10 μM FAS, 100 μM LAA",did not manifest evidence for hydroxylation
